Data set [1] concerns pentylenetetrazol (PTZ) induced seizure. The data set is described as follows: PTZ-induced seizures test in mice. The note with it: for time of peak activity / maximal therapeutic effect: PTZ-induced seizures, s.c. equivalent to 40 mg/kg VPA; for % Protection / Second seizure (n//N): s.c. pre-treatment equivalent to 40 mg/kg VPA. Format: in vivo, CD-1 mice. As for the experimental part: The anti-epileptic efficacies of C16-DP-VPA, C18-DP-VPA and mixtures comprising both C16-DP-VPA and C18-DP-VPA were evaluated in mice. The protective effect of the compounds was compared at different time points following chemical seizure induction by pentylenetetrazol (PTZ).
The pentylenetetrazol (PTZ) induced seizure model in mice is an established animal model system for epilepsy. Subcutaneous injection of PTZ into control animals results in the following sequence of events: myoclonic jerks within 1-2 mins, followed by clonic and clonic-tonic seizures each lasting approximately 5-10 secs with the severity of seizures increasing with time for up to 30 mins. 80% of the first seizures are-observed within 5 mins, and 100% within 20 mins. The second seizures usually follow within 6-10 mins and subsequent seizures (if any) every 6 mins.
CD-1 mice (25-30 g) were pre-treated by subcutaneous (s.c.) injection of either C16-DP-VPA or C18-DP-VPA or a mixture thereof. The amounts used were equivalent to 40 mg/kg VPA. After different times as indicated, 1, 2 or 4 hours, a convulsive dose of pentylenetetrazol (85-100 mg/kg) was subcutaneously injected into the mice. The animals were monitored for one hour following the PTZ administration for the occurrence of episodes of clonic spasms persisting for at least 5 sec.

The conditions of data set [2]: compared with sodium valproate; from Ser. No. 08/479,959 and WO 94/22483; listed as TVA 16; cited from earlier work.
The nature of data set [3]: Pharmacokinetics study in humans: plasma levels by LC-MS/MS after a single oral administration. The note with it: for time at which the peak concentration in the plasma was reached / terminal plasma half-life (t1/2): human plasma, single oral administration of C16/C18-DP-VPA (13%:87% w/w); for terminal plasma half-life (t1/2): calculated from plasma concentration-time profiles; for plasma concentration: human. The class given is in vivo, human. As for the experimental part:
In order to assess the pharmacokinetic properties of the C16-DP-VPA and C18-DP-VPA compounds, the plasma levels of these compounds were monitored in human subjects.
Healthy male volunteers, 18-40 year old, (7 individuals for each dose tested) received, by a single oral administration, 0.3125 g, 0.625 g or 1.25 g of C16/C18-DP-VPA mixture at a ratio of C16/C18=13%: 87% (w/w). Blood samples, 10 ml each, were drawn from each individual at the time points after the administration of the drug, as indicated. The samples were centrifuged at 4° C. at 1100 g for 10 minutes immediately after collection. Plasma levels of C16-DP-VPA and C18-DP-VPA were determined using a LC-MS/MS technique. The plasma concentration profiles of C16-DP-VPA and C18-DP-VPA as monitored for 24 hours following a single oral administration 0.625 g of C16/C18-DP-VPA are shown, respectively, in FIGS. 2A and 2B.

The mark [4] stands for this setting: 1 hour after single oral 0.625 g C16/C18-DP-VPA.
Setting [5] is: 3 hours after single oral 0.625 g C16/C18-DP-VPA.
Setting [6] is: 6 hours after single oral 0.625 g C16/C18-DP-VPA.
Where [7] appears, read: 8 hours after single oral 0.625 g C16/C18-DP-VPA.
[8] abbreviates: 10 hours after single oral 0.625 g C16/C18-DP-VPA.
The mark [9] stands for this setting: 12 hours after single oral 0.625 g C16/C18-DP-VPA.

Entries after “also recorded” stand apart in the source; their conditions may differ.

Regarding `CCCCCCCCCCCCCCCC(=O)OC[C@H](COP(=O)([O-])OCC[N+](C)(C)C)OC(=O)C(CCC)CCC` [C16-DP-VPA, 1-Palmitoyl-2-valproyl-sn-glycero-3-phosphatidylcholine], in data set [1], the “time of peak activity / maximal therapeutic effect” value is no more than 1 h. For the same compound, the “% Protection” value in data set [1] (PTZ after 1 h) came out at 50%; in data set [1] (PTZ after 2 h) it was 25%; in data set [1] (PTZ after 4 h) it was 38%. The “Second seizure (n//N)” value in data set [1] (PTZ after 1 h) is 4/8; in data set [1] (PTZ after 2 h) it was 6/8; in data set [1] (PTZ after 4 h), 5/8. Further, the anticonvulsant activity entry in data set [2] is listed as “significant anticonvulsant activity; also recorded: more potent than sodium valproate”. Besides, the “time at which the peak concentration in the plasma was reached” value in data set [3] came to 6 h. For the same compound, in data set [3], the “terminal plasma half-life (t1/2)” value is 14.0 ± 0.6 h. The plasma concentration in data set [3] (setting [4]) was 13 ± 34 ng/mL; in data set [3] (setting [5]), 167 ± 94 ng/mL; in data set [3] (setting [6]) it was 397 ± 172 ng/mL; in data set [3] (setting [7]) it was 385 ± 140 ng/mL; in data set [3] (setting [8]), 368 ± 182 ng/mL; in data set [3] (setting [9]) it was 318 ± 150 ng/mL.

Turning to `CCCCCCCCCCCCCCCCCC(=O)OC[C@H](COP(=O)([O-])OCC[N+](C)(C)C)OC(=O)C(CCC)CCC` [C18-DP-VPA, 1-Stearoyl-2-valproyl-sn-glycero-3-phosphatidylcholine], the “time of peak activity / maximal therapeutic effect” value in data set [1] is 4 h. Also, the “% Protection” value in data set [1] (PTZ after 1 h) was 17%; in data set [1] (PTZ after 2 h) it was 14%; in data set [1] (PTZ after 4 h), 86%. Moreover, the figures for the “Second seizure (n//N)” value in data set [1] (PTZ after 1 h), in data set [1] (PTZ after 2 h) and in data set [1] (PTZ after 4 h) were 5/6, 6/7 and 1/7, respectively. For the same compound, the “time at which the peak concentration in the plasma was reached” value in data set [3] was found to be 8 h. In addition, the “terminal plasma half-life (t1/2)” value in data set [3] is 8.3 ± 1.3 h. Further, the plasma concentration in data set [3] (setting [4]) was found to be 0 ± 0 ng/mL; in data set [3] (setting [5]), 58 ± 43 ng/mL; in data set [3] (setting [6]), 818 ± 292 ng/mL; in data set [3] (setting [7]) it was 1175 ± 137 ng/mL; in data set [3] (setting [8]), 949 ± 254 ng/mL; in data set [3] (setting [9]) it was 698 ± 163 ng/mL.

These data come from patent publication US20040033987A1, “Phospholipid derivatives of valproic acid and mixtures thereof” (priority 2003, published 2004).
